Converted amounts (≈) assume the structure as drawn. “Also recorded” adds a separate entry of the source. Structures can show the parent of a compound that is named as a salt.
Assays:
[1] = Stability against pH; format: physicochemical; details: outside the stable pH range
[2] = Solubilities; format: physicochemical; details: for Solubilities: insoluble: insoluble solvents; for Solubilities: readily soluble: readily soluble solvents; for Solubilities: sparingly soluble: sparingly soluble solvents
[3] = system: Klebsiella pneumoniae; assay: Antimicrobial spectrum, minimal inhibitory concentration (Procedure I); format: cell-based; details: Procedure I: heart infusion agar, 37° C, 24 hours
Experimental: (§1) In the table, procedures I to III mean the following:
(§2) Procedure I : Cultivated on heart infusion agar medium (Difco) at 37° C for 24 hours.

[4] = system: Bacillus subtilis; assay: as above; format: cell-based; details: Procedure I: heart infusion agar, 37° C, 24 hours
Experimental: as §1, §2

[5] = system: Escherichia coli; assay: as above; format: cell-based; details: Procedure I: heart infusion agar, 37° C, 24 hours
Experimental: as §1, §2

[6] = system: Proteus vulgaris; assay: as above; format: cell-based; details: Procedure I: heart infusion agar, 37° C, 24 hours
Experimental: as §1, §2

[7] = system: Pseudomonas aeruginosa; assay: as above; format: cell-based; details: Procedure I: heart infusion agar, 37° C, 24 hours
Experimental: as §1, §2

[8] = system: Staphylococcus aureus; assay: as above; format: cell-based; details: Procedure I: heart infusion agar, 37° C, 24 hours
Experimental: as §1, §2

[9] = system: Proteus mirabilis; assay: as above; format: cell-based; details: Procedure I: heart infusion agar, 37° C, 24 hours
Experimental: as §1, §2

[10] = system: Mycobacterium species; assay: Antimicrobial spectrum, minimal inhibitory concentration (Procedure II); format: cell-based; details: Procedure II: heart infusion agar with 1 % added glycerin, 37° C, 48 hours
Experimental: as §1
(§3) Procedure II : Cultivated on heart infusion agar medium with 1 % added glycerin at 37° C for 48 hours.

[11] = system: Cryptococcus neoformans; assay: Antimicrobial spectrum, minimal inhibitory concentration (Procedure III); format: cell-based; details: Procedure III: glucose bouillon agar, 28° C, 96 hours
Experimental: as §1
(§4) Procedure III : Cultivated on glucose bouillon agar medium at 28° C for 96 hours.

[12] = system: Microsporum gypseum; assay: as above; format: cell-based; details: Nannizzia gypsea; Procedure III: glucose bouillon agar, 28° C, 96 hours
Experimental: as §1, §4

[13] = system: Trichophyton mentagrophytes; assay: as above; format: cell-based; details: Procedure III: glucose bouillon agar, 28° C, 96 hours
Experimental: as §1, §4

[14] = system: Asperigillus fumigatus; assay: as above; format: cell-based; details: Procedure III: glucose bouillon agar, 28° C, 96 hours
Experimental: as §1, §4

[15] = system: Candida albicans; assay: as above; format: cell-based; details: Procedure III: glucose bouillon agar, 28° C, 96 hours
Experimental: as §1, §4

[16] = Toxicity (general statement)
[17] = system: gram-positive and gram-negative bacteria; assay: Antimicrobial spectrum (general statement); format: cell-based
Experimental: as §2, §3, §4

[18] = Acute toxicity in mice (intravenous); format: in vivo; details: for LD50: mouse, in vivo
[19] = system: bacteria of the genus Pseudomonas; assay: Antimicrobial spectrum (general statement); format: cell-based
Experimental: as §2

SMILES | Stability: decomposition [1] | Solubilities: insoluble [2] | Solubilities: readily soluble [2] | Solubilities: sparingly soluble [2] | MIC [3] [µg/mL] | MIC [4] [µg/mL] | MIC [5] [µg/mL] | MIC [6] [µg/mL] | MIC [7] [µg/mL] | MIC [8] [µg/mL] | MIC [9] [µg/mL] | MIC [10] [µg/mL] | MIC [11] [µg/mL] | MIC [12] [µg/mL] | MIC [13] [µg/mL] | MIC [14] [µg/mL] | MIC [15] [µg/mL] | toxicity [16] | antimicrobial spectrum [17] | solubility in water (general statement) [2] | other results
CCC(=O)N[C@H]1[C@H](O)[C@@H](O)C(OC(C(O)CN)C(N)C(O)CO)O[C@@H]1CO (stereo partly drawn) [P-2563 (I) monohydrochloric acid salt] | decomposes gradually with a loss of activity under strongly basic (above pH 8) and strongly acidic (below pH 3) conditions | insoluble in chloroform, ethyl acetate, ether, n-hexane and petroleum ether | Readily soluble in water and methanol | sparingly soluble in ethanol, n-propanol, butanol and acetone |  |  |  |  |  |  |  |  |  |  |  |  |  |  |  |  | 
CCC(=O)N[C@H]1[C@H](O)[C@@H](O)C(OC(C(O)CN)C(N)C(O)CO)O[C@@H]1CO (stereo partly drawn) [P-2563 (I)] | decomposes gradually with a loss of activity under strongly basic (above pH 8) and strongly acidic (below pH 3) conditions | insoluble in chloroform, ethyl acetate, ether, n-hexane and petroleum ether | Readily soluble in water, methanol and ethanol | sparingly soluble in n-propanol, butanol and acetone | 12.5 (≈ 31.5 µM) | 30 (≈ 75.5 µM) | 30 (≈ 75.5 µM) | 30 (≈ 75.5 µM) | 50 (≈ 126 µM) | 50 (≈ 126 µM) | 200 (≈ 503 µM) | 200 (≈ 503 µM) | > 500 | > 500 | > 500 | > 500 | > 500 | low toxicity | broad antimicrobial spectrum, especially against gram-positive and gram-neg ative bacteria; also recorded: inhibitory to gram-positive and gram-negative bacteria | water-soluble | toxicity [18]: extremely low in toxicity; LD50 [18]: > 400 mg/kg; inhibitory to bacteria of the genus Pseudomonas [19]: particularly to bacteria of the genus Pseudomonas
CC(=O)N[C@H]1[C@H](O)[C@@H](O)C(OC(C(O)CN)C(N)C(O)CO)O[C@@H]1CO (stereo partly drawn) [P-2563 (II)] | decmposes gradually with a loss of activity under strongly basic (above pH 8) and strongly acidic (below pH 3) conditions | insoluble in chloroform, ethyl acetate, ether, n-hexane and petroleum ether | Readily soluble in water and methanol | sparingly soluble in ethanol, n-propanol, butanol and acetone | 50 (≈ 130 µM) | 70 (≈ 183 µM) | 50 (≈ 130 µM) | 100 (≈ 261 µM) | 300 (≈ 782 µM) | 200 (≈ 522 µM) | 200 (≈ 522 µM) | 200 (≈ 522 µM) | > 500 | > 500 | > 500 | > 500 | > 500 | low toxicity | broad antimicrobial spectrum, especially against gram-positive and gram-neg ative bacteria; also recorded: inhibitory to gram-positive and gram-negative bacteria | water-soluble | toxicity [18]: extremely low in toxicity; LD50 [18]: > 400 mg/kg; inhibitory to bacteria of the genus Pseudomonas [19]: particularly to bacteria of the genus Pseudomonas
NCC(O)C(OC1O[C@H](CO)[C@@H](N)[C@H](O)[C@H]1O)C(N)C(O)CO (stereo partly drawn) [P-2563 (III)] | decomposes gradually under strongly acidic (below pH 3) and strongly basic (above pH 13) conditions | insoluble in chloroform, ethylacetate, ether, n-hexane and petroleum ether | Readily soluble in water and methanol | sparingly soluble in ethanol, n-propanol, butanol and acetone |  |  |  |  |  |  |  |  |  |  |  |  |  | low toxicity | broad antimicrobial spectrum, especially against gram-positive and gram-neg ative bacteria | water-soluble | 
